Source: patent US8372866B2, “2-aryl and 2-heteroaryl 4H-1-benzopyran-4-one-6-amidino derivatives, new pharmacological agents for the treatment of arthritis, cancer and related pain” (Rottapharm S.p.A., priority 2008, dated 2013)
Counter-ions that a name gives are not always drawn.

Tests used:
[1] = biological target: T1, recombinant human aggrecanase 1 (ADAMTS-4) (Homo sapiens, UniProt O75173); experiment: InviLISA Aggrecanase activity assay, aggrecanase 1; type: biochemical; conditions: for inhibition at 10 µM: inhibitors tested at 10 μM final concentration
T1 construct: ADAMTS-4 aminoacids F213-A579 with C-terminal tag; purchased Invitek GmbH, Berlin
T1 sequence (O75173 213-579): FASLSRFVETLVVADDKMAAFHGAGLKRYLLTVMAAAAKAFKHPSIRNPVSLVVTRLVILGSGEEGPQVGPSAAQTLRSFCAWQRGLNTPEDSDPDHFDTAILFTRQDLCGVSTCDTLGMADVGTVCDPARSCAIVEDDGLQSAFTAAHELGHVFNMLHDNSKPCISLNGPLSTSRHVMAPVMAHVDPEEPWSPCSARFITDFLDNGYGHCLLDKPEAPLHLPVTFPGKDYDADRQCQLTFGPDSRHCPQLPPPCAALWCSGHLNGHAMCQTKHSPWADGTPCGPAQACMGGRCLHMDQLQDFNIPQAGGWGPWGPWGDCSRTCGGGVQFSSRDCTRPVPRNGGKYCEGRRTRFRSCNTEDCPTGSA
Experimental: (§1) The InviLISA Aggrecanase activity assay (Invitek GmbH, Berlin) was used to screen and characterise aggrecanase inhibitors. The assay was carried out in two steps, according to Will et al. (Will H, Dettloff M, Bendzko P, Svenshnikov P, A Quantitative Assay for aggrecanase Activity; 2005, Journal of Biomolecular Techniques, 16 (4), 459-472). A recombinant fragment of human aggrecan interglobular domain (aggrecan-IGD; T331-G458) is first digested with aggrecanase. Proteolytic cleavage of the substrate releases an aggrecan peptide with the N-terminal sequence ARGSVIL (ARGSVIL-peptide), that was then quantified with two monoclonal anti-peptide antibodies (ELISA module). For precise calculation of product, ARGSVIL-peptide standard concentrations were run in parallel.
(§2) 1) Proteolysis of aggrecan-IGD by aggrecanase. Aggrecan-IGD was incubated with standard recombinant human aggrecanase 1 (ADAMTS-4 aminoacids F213-A579 with C-terminal tag) or standard recombinant human aggrecanase 2 (ADAMTS-5 aminoacids S262-G625 with C-terminal tag) in the absence (total enzymatic activity) or presence (modulated enzymatic activity) of inhibitors to be tested. Enzymes were pre-incubated with the inhibitors or the appropriate concentration of diluent as control (DMSO 0.25% final concentration in proteolysis), at 4° C. for 30 min prior to assaying their activity. Five microliters of mix enzyme-inhibitor were added to the substrate (0.1 μM final concentration) in a total volume of 100 μL and incubated for 15 minutes at 37° C. The reaction was terminated with EDTA-containing buffer. The inhibitors were tested at 10 μM final concentration and compounds achieving ≧50% inhibitory effect were evaluated for IC50 calculation, in a range generally extended from 0.1 to 10 μM final concentration.
(§3) 2) Aggrecan peptide ELISA. ARGSVIL-peptide standard, proteolytic digestion of Aggrecan-IGD with standard aggrecanases and test samples were incubated in microtiter wells pre-coated with anti-ARGSVIL-neoepitope antibody. ARGSVIL-peptide is bound to the coated antibody, while other components are removed by washing and aspiration. The bound ARGSVIL-peptide was detected with a second peroxidase-labelled antibody. Any excess of the conjugate was removed by washing and aspiration. The amount of peroxidase bound to different wells was determined in reactions with peroxidase substrate TMB. The reactions are stopped by addition of sulphuric acid solution and absorbance is read at 450 nm in a microtiter plate spectrophotometer.

[2] = biological target: T2, recombinant human aggrecanase 2 (ADAMTS-5) (Homo sapiens, UniProt Q9UNA0); experiment: InviLISA Aggrecanase activity assay, aggrecanase 2; type: biochemical; conditions: for inhibition at 10 µM: inhibitors tested at 10 μM final concentration
T2 construct: ADAMTS-5 aminoacids S262-G625 with C-terminal tag; purchased Invitek GmbH, Berlin
T2 sequence (Q9UNA0 262-625): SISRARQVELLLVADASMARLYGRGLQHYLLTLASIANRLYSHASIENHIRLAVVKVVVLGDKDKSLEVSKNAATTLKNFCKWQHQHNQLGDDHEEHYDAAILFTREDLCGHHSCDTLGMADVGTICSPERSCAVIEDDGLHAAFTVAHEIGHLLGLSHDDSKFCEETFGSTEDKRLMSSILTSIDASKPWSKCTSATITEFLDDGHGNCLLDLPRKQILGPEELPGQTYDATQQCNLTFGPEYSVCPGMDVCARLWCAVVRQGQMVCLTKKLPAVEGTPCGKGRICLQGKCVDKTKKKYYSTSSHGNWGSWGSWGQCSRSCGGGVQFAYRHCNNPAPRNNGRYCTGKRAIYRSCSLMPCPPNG
Experimental: as §1, §2, §3

[3] = test system: mechanical hyperalgesia associated with STZ-induced diabetes; experiment: STZ-induced diabetes mechanical hyperalgesia, model of neuropathic pain (Randall-Selitto); type: in vivo, rat
Experimental: Painful diabetic neuropathy is one of the most common complications of insulin-dependent diabetes in man; in particular, diabetes can be associated with neuropathic pain which fails to be treated by classical analgesics. Streptozotocin (STZ)-induced diabetes in the rat has been increasingly used as a model of painful diabetic neuropathy to assess the efficacies of potential analgesic agents (C. Courteix, Pain 1993, 53, 81-8). A representative compound of the invention was tested for efficacy in reducing mechanical hyperalgesia associated with STZ-induced diabetes in the rat, according to the experimental model as described by the literature. Diabetes was produced with the injection of a single dose (75 mg/Kg i.p.) of STZ. In the following four weeks after the induction of diabetes the clinical symptoms (weight, body and skin temperature, motility and hyperglycemia) progressively developed by the animals, are strictly monitored.
After four weeks, the scores obtained in diabetic rats to various pain stimuli (in particular mechanical stimuli) were greater than those in normal rats, indicating hyperalgesia. The hyperalgesia induced by diabetes was evaluated using the Randall-Selitto method as above described, and quantitated using the analgesimeter. Also in this case, the difference in the mechanical pain threshold between the basal value (generally 230-250 g) and the one tolerated by the animals treated with the drug, is defined as mechanical hyperalgesia. The compound of the invention was administered i.p. (solution, Tween 80, 10% in saline) at different doses, and mechanical hyperalgesia was measured at the reported time, as maximum percent effect (MPE) which represents the difference (%) in pain threshold between the animals treated with the drug and the controls that received only the vehicle, compared with the weight borne by naïf non-diabetic controls. A 100% protection means that the diabetic animals treated with the compound can tolerate the same stimulus (weight) as the naïf non-diabetic animals. MPE higher than 100% means that the diabetic animal treated with the compound can tolerate stimuli (weight) higher than the control non-diabetic animals (hypoalgesia).
In Table 4, the effect of a representative compound of formula (I), in the above described model of neuropathic pain, is compared with some known pharmacological standards used for the clinical treatment of this pathology. In particular, from the MPE data at 0.5 hrs, the doses yielding a protection of 50% (ED50) and 100% (ED100) have been calculated.

[4] = test system: CFA-induced prolonged inflammation; experiment: CFA model of chronic inflammatory pain (Randall-Selitto); type: in vivo, rat
[5] = 30 mg/Kg IP, NE = not effective
[6] = 100 mg/Kg IP, NE = not effective
[7] = 300 mg/Kg IP, NE = not effective
[8] = 10 mg/Kg IP, NE = not effective

Which inhibition at 10 µM [1] does the source give for `COc1ccc(-c2oc3ccc(NC(C)=N)cc3c(=O)c2O)cn1` [Example 20, 2-(6-methoxypyridin-3-yl)-3-hydroxy-6-[(1-iminoethyl)amino]-4H-1-benzopyran-4-one] here?
Its inhibition at 10 µM is 0%.

And the IC50 [2]?
The IC50 was 2200 nM.

`CC(=N)Nc1ccc2oc(-c3ccc4c(c3)OCO4)c(O)c(=O)c2c1` [Example 16, 2-(benzo[1,3]dioxol-5-yl)-3-hydroxy-6-[(1-iminoethyl)amino]-4H-1-benzopyran-4-one hydrochloride] was tested. Which inhibition at 10 µM [1] did it give?
Its inhibition at 10 µM is 32%.

What about the IC50 [2] of the same molecule?
Its IC50 is 5000 nM.

Which results are given for `NCC1(CC(=O)O)CCCCC1` [Gabapentin]?
MPE 0.5 hrs [3, 5]: 39%; MPE 1.5 hrs [3, 5]: 41%; MPE 0.5 hrs [3, 6]: 55%; MPE 1.5 hrs [3, 6]: 38%; MPE 0.5 hrs [3, 7]: 47%; MPE 1.5 hrs [3, 7]: 36%

Which results are given for `N=C(CC1CC1)Nc1ccc2oc(-c3ccc4c(c3)OCO4)c(O)c(=O)c2c1` [Example 18]?
inhibition at 10 µM [1]: 0%; IC50 [2]: 4300 nM

With `COc1ccc(-c2oc3ccc(NC(=N)CO)cc3c(=O)c2O)cc1` [Example 13, 2-(4-methoxyphenyl)-3-hydroxy-6-[(1-iminoethyl-2-hydroxy)amino]-4H-1-benzopyran-4-one hydrochloride monohydrate] as the molecule, how does the inhibition at 10 µM [1] read?
Its inhibition at 10 µM is 0%.

And the IC50 [2]?
Its IC50 is 2800 nM.

Which inhibition at 10 µM [1] does the source give for `COCCC(=N)Nc1ccc2oc(-c3ccc(-n4ccnc4)cc3)c(O)c(=O)c2c1` [Example 7] here?
Its inhibition at 10 µM is 31%.

What about the IC50 [2] of the same molecule?
Its IC50 is 2400 nM.

Which results are given for `CC(=N)Nc1ccc2oc(-c3ccc4c(c3)CCO4)c(O)c(=O)c2c1` [Example 15, 2-(dihydrobenzofuran-5-yl)-3-hydroxy-6-[(1-iminoethyl)amino]-4H-1-benzopyran-4-one hydrochloride]?
inhibition at 10 µM [1]: 10%; IC50 [2]: 15000 nM

Which results are given for `CN1C(C(=O)Nc2ccccn2)=C(O)c2ccccc2S1(=O)=O` [Piroxicam, reference compound]?
MPE 0.5 hrs ([4]; 3 mg/Kg IP, NE = not effective): 25%; MPE 1.5 hrs ([4]; 3 mg/Kg IP, NE = not effective): 40%; MPE 0.5 hrs [4, 8]: 46%; MPE 1.5 hrs [4, 8]: 73%; MPE 3 hrs [4, 8]: 62%; MPE 0.5 hrs [4, 5]: 102%; MPE 1.5 hrs [4, 5]: 111%; MPE 3 hrs [4, 5]: 54%; MPE 6 hrs [4, 5]: 24%; MPE 24 hrs [4, 5]: 38%; ED100 0.5 hrs ([4]; IP, calculated from the MPE data at 0.5 hrs): 34.33 mg/kg; ED50 ([4]; Rattus norvegicus, IP, calculated from the MPE data at 0.5 hrs, read-out: ED50 0.5 hrs): 7.65 mg/kg

How did the inhibition at 10 µM [1] turn out when `CC(=N)Nc1ccc2oc(-c3ccc(S(C)(=O)=O)cc3)c(O)c(=O)c2c1` [Example 9, 2-(4-methansulfonylphenyl)-3-hydroxy-6-[(1-iminoethyl)amino]-4H-1-benzopyran-4-one hydrochloride] was run?
Its inhibition at 10 µM is 20%.

And the IC50 [2]?
The IC50 was 11500 nM.

How did the inhibition at 10 µM [1] turn out when `N=C(CC1CC1)Nc1ccc2oc(-c3ccc(O)cc3)c(O)c(=O)c2c1` [Example 11, 2-(4-hydroxyphenyl-3-hydroxy-6-[(1-iminoethyl-2-cyclopropyl)amino]-4H-1-benzopyran-4-one hydrochloride] was run?
The inhibition at 10 µM was 30%.

What about the inhibition at 10 µM [2] of the same molecule?
Its inhibition at 10 µM is 40%.

`CC(=N)Nc1ccc2oc(-c3ccc(O)c(O)c3)c(O)c(=O)c2c1` [Example 10, 2-(3,4-dihydroxyphenyl)-3-hydroxy-6-[(1-iminoethyl)amino]-4H-1-benzopyran-4-one hydrochloride] was tested. Which IC50 [1] did it give?
Its IC50 is 610 nM.

What about the IC50 [2] of the same molecule?
The IC50 was 3500 nM.

Which inhibition at 10 µM [2] does the source give for `CC(=N)Nc1ccc2oc(-c3ccc(OCc4ccccc4)cc3)c(O)c(=O)c2c1` [Example 22, 2-[(4-benzyloxy-phenyl]-3-hydroxy-6-[(1-iminoethyl)amino]-4H-1-benzopyran-4-one hydrochloride] here?
Its inhibition at 10 µM is 34%.

Which IC50 [1] does the source give for `COc1ccc(-c2oc3ccc(NC(C)=N)cc3c(=O)c2O)cc1` [Example 12, 2-(4-methoxyphenyl)-3-hydroxy-6-[(1-iminoethyl)amino]-4H-1-benzopyran-4-one hydrochloride monohydrate] here?
Its IC50 is 2700 nM.

What about the IC50 [2] of the same molecule?
The IC50 was 1120 nM.

`CC(=N)Nc1ccc2oc(-c3ccc(-n4ccnc4)cc3)c(O)c(=O)c2c1` [Example 5, 2-[(4-imidazol-1-yl)-phenyl]-3-hydroxy-6-[(1-iminoethyl)amino]-4H-1-benzopyran-4-one hydrochloride] was tested. Which inhibition at 10 µM [1] did it give?
The inhibition at 10 µM was 30%.

And the IC50 [2]?
Its IC50 is 870 nM.

Which results are given for `CN(C)CCC=C1c2ccccc2CCc2ccccc21` [Amitriptyline]?
MPE 0.5 hrs ([3]; 3 mg/Kg IP, NE = not effective): 44%; MPE 1.5 hrs ([3]; 3 mg/Kg IP, NE = not effective): 40%; MPE 0.5 hrs [3, 8]: 68%; MPE 1.5 hrs [3, 8]: 77%; MPE 0.5 hrs [3, 5]: 65%; MPE 1.5 hrs [3, 5]: 69%; MPE 3 hrs [3, 5]: 23%; ED50 ([3]; Rattus norvegicus, IP, calculated from the MPE data at 0.5 hrs, NC = not calculable, read-out: ED50 0.5 hrs): 3.76 mg/kg

With `COc1ccc(C(=N)Nc2ccc3oc(-c4ccc(OC)cc4)c(O)c(=O)c3c2)cc1` [Example 14, N-[2-(4-methoxyphenyl)-3-hydroxy-4H-1-benzopyran-4-one-6-yl]-4-methoxybenzene carboxiimidamide hydrochloride] as the molecule, how does the inhibition at 10 µM [1] read?
The inhibition at 10 µM was 0%.

What about the IC50 [2] of the same molecule?
Its IC50 is 10000 nM.

With `N=C(CC1CC1)Nc1ccc2oc(-c3ccc(-n4ccnc4)cc3)c(O)c(=O)c2c1` [Example 6, 2-[(4-imidazol-1-yl)-phenyl]-3-hydroxy-6-[(1-iminoethyl-2-cyclopropyl)amino]-4H-1-benzopyran-4-one dihydrochloride monohydrate] as the molecule, how does the IC50 [1] read?
The IC50 was 1610 nM.

And the IC50 [2]?
The IC50 was 200 nM.

With `CC(=N)Nc1ccc2oc(-c3cccc(-n4ccnc4)c3)c(O)c(=O)c2c1` [Example 8, 2-[(3-(imidazol-1-yl)-phenyl]-3-hydroxy-6-[(1-iminoethyl)amino]-4H-1-benzopyran-4-one dihydrochloride] as the molecule, how does the IC50 [2] read?
The IC50 was 10000 nM.

With `CC(=N)Nc1ccc2oc(-c3ccc(O)nc3)c(O)c(=O)c2c1` [Example 21, 2-(6-hydroxypyridin-3-yl)-3-hydroxy-6-[(1-iminoethyl)amino]-4H-1-benzopyran-4-one hydrochloride] as the molecule, how does the inhibition at 10 µM [2] read?
The inhibition at 10 µM was 20%.
